We go through twelve compounds from US20030083271A1, “Topoisomerase I selective cytotoxic sugar derivatives of indolopyrrolocarbazoles” (priority 2001, published 2003).

The subject of experiment [1] is P388/CPT45 cells. As to the kind of experiment: Cytotoxicity in camptothecin-resistant P388/CPT45 cells relative to parental P388 (selectivity index R/S). The format is cell-based, murine. To be noted: IC50 P388/CPT45 cells divided by IC50 parental P388 cells. From the text:
The present invention includes fluoro sugar and other sugar derivatives of indolopyrrolocarbazoles of formula (I), as defined above. […] Most importantly, the instant invention describes topo I active compounds, related to compounds disclosed in WO 98/07433 and co-pending U.S. application, Ser. No. 08/914566 (both herein incorporated by reference), which display a surprising and unexpected selectivity index when evaluated for cytotoxicity in certain cell lines which express normal levels of topo I required for cell proliferation, compared with cell lines that are deficient in or underexpress topo I. Said “selectivity index” (R/S) was generated by dividing the cytotoxic IC50 of a particular compound against a camptothecin-resistant murine leukemia cell line, P388/CPT45, by the IC50 generated when using the parent P388 cell line. […] A level of selectivity was judged to be advantageous and beneficial in, for example, modulating potential undesirable side effects and/or toxicity. The compounds of the present invention were selected from compounds generically disclosed in WO 98/07433 and co-pending U.S. patent application, Ser. No. 08/914566, on the basis of an unexpected and unpredictable selectivity index (see Table I and II). […] Simple changes in the substitution of the sugar portion or the indolopyrrolocarbazole portion of the present invention will change the selectivity. This change in selectivity is not predictable by one skilled in the art.
(§1) Similarly, P338 murine leukemia cells were maintained in RPMI 1640 supplemented with 20% fetal bovine serum and 10 μM 2-mercaptoethanol. A camptothecin resistant subline, P388/CPT45, was selected for resistance to camptothecin and is over 1000-fold resistant to this compound (Woessner, et al. Oncol. Res. 1992, 4, 481-488).
(§2) In vitro cytotoxicity was assessed in tissue culture cells by MTS (3-(4,5-dimethylthiazol-2-yl)-5-(3-carboxymethoxyphenyl)-2-(4-sulphenyl)-2H-tetrazolium, inner salt) assay (Riss and Moravec, Mol. Biol. Cell 1992, 3 (Suppl.), 184a). Cells were plated at 8,000 cell/well in 96 well microtiter plates and 24 hours later serial dilutions of the test compounds were made and added to the cells. The cells were incubated at 37° C. for 72 hours, at which time the tetrazolium dye, MTS at 333 μg/ml (final concentration), in combination with the electron coupling agent phenazine methosulfate at 25 μM (final concentration) was added. A dehydrogenase enzyme in live cells reduces the MTS to a form that absorbs light at 492 nm which can be quantitated spectrophotometrically. The greater the absorbance the greater the number of live cells. The results are expressed as an IC50, which is the drug concentration required to inhibit cell proliferation (i.e., absorbance at 492 nm) to 50% of that of untreated control cells.
The selectivity index (R/S) is defined as the ratio obtained by dividing the IC50 value obtained using P388/CPT45 cells by that obtained using parental P388 cells. The R/S ratios used to determine the relative topo I selectivity of selected compounds of this invention are shown below in Table I.

Experiment [2] deals with P388 murine leukemia cells. Put plainly: In vitro cell-based cytotoxicity, parental P388 cells. The settings on record: Mus musculus, 72 h, median cytotoxic concentration, 3 days continuous exposure. How it is done:
The proliferation inhibition activity against the murine P388 cell line was measured as follows. Evaluation of a soluble tetrazolium/formazan assay for cell growth and drug sensitivity in culture, using human and other tumor cell lines, was done according to the procedure described in Cancer Res. 1988, 48, 4827-4833. Cells were plated at 4000 cells/well in 96 well microtiter plates and 24 h later drugs were added and serially diluted. The cells were incubated at 37° C. for 72 h, at which time a tetrazolium dye, XTT, containing phenazine methosulfate was added. A dehydrogenase enzyme in live cells reduced the XTT to a form that absorbs light at 450 nm, which could be quantitated spectrophotometrically. The greater the absorbance the greater the number of live cells. The results are expressed as an IC50, which is the drug concentration required to inhibit cell proliferation (i.e., absorbance at 450 nm) to 50% of that of untreated control cells.
as §1, §2
The cytotoxic activity for certain compounds of the present invention, in both parental P388 and the camptothecin-resistant P388/CPT45 cell lines are shown below in Table I.

Experiment [3] has as its target T1, purified human topoisomerase I (Homo sapiens, UniProt P11387).
T1 construct: purchased Topogen
T1 sequence (P11387 1-765): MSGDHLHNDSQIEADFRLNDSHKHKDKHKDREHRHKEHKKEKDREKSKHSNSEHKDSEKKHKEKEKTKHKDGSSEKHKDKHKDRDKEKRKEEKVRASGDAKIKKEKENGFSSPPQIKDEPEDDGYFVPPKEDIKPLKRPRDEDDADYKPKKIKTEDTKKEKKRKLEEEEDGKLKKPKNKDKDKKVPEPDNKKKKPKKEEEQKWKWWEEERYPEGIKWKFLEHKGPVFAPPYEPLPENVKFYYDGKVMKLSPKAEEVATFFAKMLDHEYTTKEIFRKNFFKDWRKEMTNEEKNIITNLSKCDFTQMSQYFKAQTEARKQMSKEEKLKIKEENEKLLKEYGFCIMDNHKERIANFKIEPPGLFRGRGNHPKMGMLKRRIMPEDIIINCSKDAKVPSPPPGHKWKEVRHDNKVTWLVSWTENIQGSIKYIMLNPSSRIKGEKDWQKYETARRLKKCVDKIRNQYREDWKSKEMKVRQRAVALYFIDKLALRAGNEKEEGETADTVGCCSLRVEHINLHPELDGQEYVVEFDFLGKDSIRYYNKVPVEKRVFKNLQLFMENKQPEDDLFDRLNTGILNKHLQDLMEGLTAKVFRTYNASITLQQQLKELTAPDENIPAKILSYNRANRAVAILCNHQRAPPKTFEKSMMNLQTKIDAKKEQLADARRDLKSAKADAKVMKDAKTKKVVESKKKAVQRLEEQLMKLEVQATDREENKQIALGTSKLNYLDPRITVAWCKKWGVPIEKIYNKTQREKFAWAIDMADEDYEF
Put plainly: Topoisomerase I-mediated single strand DNA break induction (in vitro). The experiment is classed as biochemical. The settings on record: median effect concentration for inducing single-strand breaks in the DNA substrate; read-out: Topo I EC50. The protocol:
Topoisomerase I activity was measured as described below. The procedure for assaying compound-induced, topoisomerase I-mediated single strand breaks in DNA was essentially that described by Hsiang, et al., (J. Biol. Chem. 1985, 260, 14873-14878). Samples dissolved in 100% DMSO as either […] or 10 mg/ml solutions, unless otherwise stated, were diluted in Tris-EDTA buffer. Marine bacteriophage PM2 DNA (Boehringer Mannheim) was also diluted in Tris-EDTA buffer to a concentration of 0.02 μg/μl. Different dilutions of the compound being evaluated were mixed with diluted DNA and this mixture was added to […] (one unit of enzyme activity is defined as the amount capable of relaxing 100 ng of supercoiled DNA in approximately 30 minutes at 37° C.) aliquots of purified human topoisomerase I (Topogen) in 2X reaction buffer to start the reaction. The compound-DNA-enzyme mixture was incubated for 30 minutes at 37° C. before stopping the reaction with warm stop buffer containing sodium dodecyl sulfate and proteinase K (Sigma). These mixtures were allowed to incubate at 37° C. for another 10 minutes, at which time the mixtures were removed from the waterbath and extracted with a 24:1 mixture of chloroform/isoamyl alcohol. Following centrifugation, aliquots of the aqueous phases were placed in wells of a 0.9% agarose (SeaKem) gel in Tris-borate buffer containing 0.5 μg/ml of ethidium bromide and subjected to electrophoresis for 15 hours to separate the different topological isomers and nicked and broken DNAs. After destaining the gel in water, the ethidium bromide stained DNA reaction products were visualized by exposing the gel to UV irradiation. Negatives of the photographs of the irradiated gels were scanned with a densitometer and areas under the peaks were calculated in order to obtain percent single strand DNA break formation for each sample. A median effective concentration (EC50) was obtained for each compound by interpolation between points of the resulting dose-effect curve which defines the potency of the compound for its effect in inducing topoisomerase I-mediated single strand breaks in DNA. The topoisomerase I activities for certain compounds of the present invention are shown below in Table I.

SMILES strings stand for the structures.

Regarding `O=C1NC(=O)c2c1c1c3cc(F)c(F)cc3sc1c1c2c2cc(F)c(F)cc2n1[C@@H]1O[C@H](CF)[C@@H](O)[C@H](O)[C@H]1O` [Example 8, 13-[6-Dideoxy-6-fluoro-β-D-glucopyranosyl]-2,3,9,10-tetrafluoro-5H,13H-benzo[b]thienyl[2,3-a]pyrrolo[3,4-c]carbazole-5,7(6H)-dione], the “Selectivity Index R/S” value in experiment [1] came to 119.1. Further, the IC50 – broadly, the midpoint of a concentration-inhibition curve – in experiment [2] worked out at 52 nM. For the same compound, the concentration for a half-maximal effect (EC50) (as a rule, the concentration that produces a half-maximal response) in experiment [3] stood at 120 nM.
On the same counts, the results for `[N-]=[N+]=N[C@H]1[C@H](O)[C@@H](O)[C@H](n2c3ccc(F)cc3c3c4c(c5c6cc(F)ccc6[nH]c5c32)C(=O)NC4=O)O[C@@H]1CO` [Example 10] are 121.3, 68 nM and 20 nM.
For the compound `NC[C@H]1O[C@@H](n2c3cc(F)c(F)cc3c3c4c(c5c6cc(F)c(F)cc6sc5c32)C(=O)NC4=O)[C@H](O)[C@@H](O)[C@@H]1F` [Example 12, 12-[6-Amino-4,6-dideoxy-4-fluoro-β-D-glucopyranosyl]-2,3,9,10-tetrafluoro-5H,13H-benzo[b]thienyl[2,3-a]pyrrolo[3,4-c]carbazole-5,7(6H)-dione], in experiment [1], the “Selectivity Index R/S” value is reported as 131.5. The IC50 in experiment [2] turned out to be 2 nM. The EC50 in experiment [3] worked out at 20 nM.
`O=C1NC(=O)c2c1c1c3cc(F)ccc3sc1c1c2c2cc(F)ccc2n1[C@@H]1O[C@H](CN2CCOCC2)[C@@H](O)[C@H](O)[C@H]1O` [Example 13]: the “Selectivity Index R/S” value in experiment [1] was 140.0. Besides, the concentration for half-maximal inhibition (IC50) in experiment [2] amounted to 100 nM. Further, the concentration for a half-maximal effect (EC50) in experiment [3] stood at 160 nM.
On the same counts, the results for `O=C1NC(=O)c2c1c1c3cc(F)c(F)cc3[nH]c1c1c2c2cc(F)c(F)cc2n1[C@@H]1O[C@H](CO)C(F)(F)[C@H](O)[C@H]1O` [Example 14] are 140.3, 6 nM and 30 nM.
For `O=C1NC(=O)c2c1c1c3cc(F)ccc3[nH]c1c1c2c2cc(F)ccc2n1[C@@H]1O[C@H](CF)C[C@H](O)[C@H]1O` [Example 15] the same measures were more than 149.7, 5 nM and 30 nM.
On the same counts, the results for `O=C1NC(=O)c2c1c1c3cc(F)c(F)cc3[nH]c1c1c2c2cc(F)c(F)cc2n1[C@@H]1O[C@H](CF)C[C@@H](F)[C@H]1O` [Example 17, 12-[3,6-Difluoro-3,4,6-trideoxy-β-D-allopyranosyl]-2,3,9,10-tetrafluoro-12,13-dihydro-5H-indolo[2,3-a]pyrrolo[3,4-c]carbazole-5,7(6H)-dione] are 179.2, 41 nM and 450 nM.
Take `[N-]=[N+]=N[C@H]1[C@@H](O)[C@@H](O)[C@H](n2c3ccc(F)cc3c3c4c(c5c6cc(F)ccc6[nH]c5c32)C(=O)NC4=O)O[C@@H]1CF` [Example 19]: the “Selectivity Index R/S” value in experiment [1] is more than 195.2. For the same compound, in experiment [2], the half-maximal inhibitory concentration (IC50) was less than 3 nM. The EC50 in experiment [3] was found to be 60 nM.
On the same counts, the results for `O=C1NC(=O)c2c1c1c3cc(F)ccc3[nH]c1c1c2c2cc(F)ccc2n1[C@@H]1O[C@H](CO)C[C@@H](O)[C@H]1O` [Example 20, 12-[4-Deoxy-β-D-allopyranosyl)-3,9-difluoro-12,13-dihydro-5H-indolo [2,3-a]pyrrolo[3,4-c]carbazole-5,7(6H)-dione] are 201.2, 2 nM and 20 nM.
For `O=C1NC(=O)c2c1c1c3cc(F)c(F)cc3[nH]c1c1c2c2cc(F)c(F)cc2n1[C@@H]1O[C@H](CO)C[C@H](O)[C@H]1O` [Example 21] the same measures were 207.7, 5 nM and 70 nM.
On the same counts, the results for `O=C1NC(=O)c2c1c1c3cc(F)c(F)cc3[nH]c1c1c2c2cc(F)c(F)cc2n1[C@@H]1O[C@H](CF)[C@@H](F)[C@H](O)[C@H]1O` [Example 22, 12-[4,6-Difluoro-4,6-dideoxy-β-D-glucopyranosyl]-2,3,9,10-tetrafluoro-12,13-dihydro-5H-indolo[2,3-a]pyrrolo[3,4-c]carbazole-5,7(6H)-dione] are 287.7, 14 nM and 80 nM.
Take `O=C1NC(=O)c2c1c1c3cc(F)ccc3[nH]c1c1c2c2cc(F)ccc2n1[C@@H]1O[C@H](CO)C(F)(F)[C@H](O)[C@H]1O` [Example 25, 12-[4,4-Difluoro-4-deoxy-β-D-glucopyranosyl]-3,9-difluoro-12,13-dihydro-5H-indolo[2,3-a]pyrrolo[3,4-c]carbazole-5,7(6H)-dione]: the “Selectivity Index R/S” value in experiment [1] came out at 381.5. In experiment [2], the IC50 worked out at 3 nM. In experiment [3], the EC50 is 10 nM.
